Experiments:
[1] = target: Phospho-KIT (Tyr719) in GIST430 cells (Homo sapiens, UniProt P10721); assay: GIST430 KIT Western Blot; assay type: cell-based; details: 4 hours, read-out: pKIT suppression by western blot analysi GIST430
Experimental: (§1) GIST48, GIST430, and GIST882 cells were obtained from J. Fletcher (Brigham and Women's Hospital, Boston, Mass.). GIST T1 cells were obtained from B. Rubin (Cleveland Clinic, Cleveland, Ohio) and Professor Takahiro Taguchi (Kochi Medical School, Nankoku, Kochi, Japan). […] GIST430 cells were grown in Ham's F10 medium supplemented with 15% characterized fetal bovine serum (Invitrogen, Carlsbad, Calif.), 30 mg/L bovine pituitary extract (BD Biosciences, San Jose, Calif.), 0.5% Mito+ serum extender (BD Biosciences, San Jose, Calif.), 1 unit/mL penicillin G, 1 μg/ml streptomycin, and 0.29 mg/mL L-glutamine at 37° C., 5% CO2, 95% humidity. GIST T1 cells were grown in DMEM medium supplemented with 10% characterized fetal bovine serum (Invitrogen, Carlsbad, Calif.), 1 unit/mL penicillin G, 1 ng/ml streptomycin, and 0.29 mg/mL L-glutamine at 37° C., 5% CO2, and 95% humidity. Cells were allowed to expand until reaching 70-95% confluence at which point they were subcultured or harvested for assay use.
(§2) One hundred fifty thousand cells were added per well in a 24-well tissue-culture treated plate. Cells were then incubated overnight at 37° C., 5% CO2, 95% humidity. Medium was aspirated, cells were washed with PBS, and serum-free Ham's F10 medium was added. A serial dilution of test compound was added to plates containing cells and plates were incubated for 4 hours at 37° C., 5% CO2, 95% humidity. Cells were washed with PBS, then lysed. Cell lysates were separated by SDS-PAGE and transferred to PVDF. Phospho-KIT (Tyr719) was detected using an antibody from Cell Signaling Technology (Beverly, Mass.), ECL Plus detection reagent (GE Healthcare, Piscataway, N.J.) and a Molecular Devices Storm 840 phosphorimager in fluorescence mode. Blots were stripped and probed for total KIT using an antibody from Santa Cruz Biotech (Santa Cruz, Calif.). IC50 values were calculated using Prism software (Graphpad, San Diego, Calif.).

[2] = target: Phospho-KIT (Tyr719) in GIST48 cells (Homo sapiens, UniProt P10721); assay: GIST48 KIT Western Blot; assay type: cell-based; details: 4 hours, read-out: pKIT suppression by western blot analysi GIST48
Chain of Phospho-KIT (Tyr719) in GIST48 cells (P10721 whole entry V560D/D820A, form open): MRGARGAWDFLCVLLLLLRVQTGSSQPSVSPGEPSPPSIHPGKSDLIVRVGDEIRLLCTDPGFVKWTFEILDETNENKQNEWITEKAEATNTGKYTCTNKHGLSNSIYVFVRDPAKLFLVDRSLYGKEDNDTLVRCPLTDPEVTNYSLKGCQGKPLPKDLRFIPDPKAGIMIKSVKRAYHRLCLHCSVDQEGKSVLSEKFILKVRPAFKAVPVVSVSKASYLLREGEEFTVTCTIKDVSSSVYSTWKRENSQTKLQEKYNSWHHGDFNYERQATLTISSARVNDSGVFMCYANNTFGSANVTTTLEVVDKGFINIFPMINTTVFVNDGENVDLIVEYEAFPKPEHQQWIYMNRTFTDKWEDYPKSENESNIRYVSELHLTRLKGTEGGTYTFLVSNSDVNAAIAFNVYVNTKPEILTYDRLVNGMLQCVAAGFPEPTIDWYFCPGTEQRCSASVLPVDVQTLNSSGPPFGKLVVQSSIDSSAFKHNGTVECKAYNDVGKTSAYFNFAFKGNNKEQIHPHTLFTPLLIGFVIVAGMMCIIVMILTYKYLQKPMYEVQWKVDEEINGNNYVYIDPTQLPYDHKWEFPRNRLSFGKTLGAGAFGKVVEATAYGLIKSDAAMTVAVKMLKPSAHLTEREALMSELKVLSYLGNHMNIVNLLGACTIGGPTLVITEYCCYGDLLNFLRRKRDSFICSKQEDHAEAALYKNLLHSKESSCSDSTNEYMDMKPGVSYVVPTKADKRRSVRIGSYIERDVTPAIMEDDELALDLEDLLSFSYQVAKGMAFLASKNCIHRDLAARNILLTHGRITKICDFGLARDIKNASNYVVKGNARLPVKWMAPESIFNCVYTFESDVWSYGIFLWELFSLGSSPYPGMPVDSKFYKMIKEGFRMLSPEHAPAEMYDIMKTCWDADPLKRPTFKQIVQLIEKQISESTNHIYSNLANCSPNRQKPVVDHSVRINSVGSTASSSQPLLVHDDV
Experimental: as §1
as §2, with “Two” for “One”, “RPMI1640” for “Ham's F10”

Chain of Phospho-KIT (Tyr719) in GIST430 cells (P10721 with tags, fused parts or gaps DEL560-576/V654A, form open): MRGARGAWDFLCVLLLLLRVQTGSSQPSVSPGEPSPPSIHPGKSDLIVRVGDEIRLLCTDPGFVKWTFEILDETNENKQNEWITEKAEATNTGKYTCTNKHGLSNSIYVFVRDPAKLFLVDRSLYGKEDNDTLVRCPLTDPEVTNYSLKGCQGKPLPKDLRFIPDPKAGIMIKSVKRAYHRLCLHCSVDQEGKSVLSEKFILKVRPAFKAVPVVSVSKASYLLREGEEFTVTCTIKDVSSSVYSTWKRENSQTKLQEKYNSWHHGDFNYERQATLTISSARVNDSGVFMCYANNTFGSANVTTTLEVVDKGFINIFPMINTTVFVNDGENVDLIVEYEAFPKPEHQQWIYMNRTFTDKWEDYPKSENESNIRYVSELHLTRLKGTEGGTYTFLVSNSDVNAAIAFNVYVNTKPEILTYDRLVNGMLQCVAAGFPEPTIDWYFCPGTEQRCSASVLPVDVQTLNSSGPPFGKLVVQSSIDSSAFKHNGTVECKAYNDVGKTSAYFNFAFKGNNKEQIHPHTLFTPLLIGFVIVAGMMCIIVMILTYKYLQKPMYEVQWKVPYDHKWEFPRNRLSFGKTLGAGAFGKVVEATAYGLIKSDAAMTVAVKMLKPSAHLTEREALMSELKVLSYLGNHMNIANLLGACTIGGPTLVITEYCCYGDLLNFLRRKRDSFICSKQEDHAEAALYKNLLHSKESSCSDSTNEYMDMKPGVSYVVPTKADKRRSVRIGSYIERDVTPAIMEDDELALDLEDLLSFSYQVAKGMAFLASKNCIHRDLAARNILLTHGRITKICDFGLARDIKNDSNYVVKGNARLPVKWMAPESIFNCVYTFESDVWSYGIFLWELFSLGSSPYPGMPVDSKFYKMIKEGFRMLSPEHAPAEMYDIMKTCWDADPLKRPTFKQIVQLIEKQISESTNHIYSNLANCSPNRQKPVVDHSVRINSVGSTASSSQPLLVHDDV

Structure (SMILES) | IC50 [1] [µM] | IC50 [2] [µM]
CCn1c(=O)c(-c2cc(NC(=O)Nc3cccc4ccccc34)c(F)cc2C)cc2cnc(NC)cc21 [Example 1, 1-(5-(1-ethyl-7-(methylamino)-2-oxo-1,2-dihydro-1,6-naphthyridin-3-yl)-2-fluoro-4-methylphenyl)-3-(naphthalen-1-yl)urea] | < 0.01 | 0.01 to 0.1
CCn1c(=O)c(-c2cc(NC(=O)Nc3cccc(F)c3F)c(F)cc2Cl)cc2cnc(NC)cc21 [Example 4, 1-(4-chloro-5-(1-ethyl-7-(methylamino)-2-oxo-1,2-dihydro-1,6-naphthyridin-3-yl)-2-fluorophenyl)-3-(2,3-difluorophenyl)urea] | 0.01 to 0.1 | 0.01 to 0.1
CCn1c(=O)c(-c2cc(NC(=O)Nc3cccc4ccccc34)c(F)cc2Cl)cc2cnc(NC)cc21 [Example 6, 1-(4-chloro-5-(1-ethyl-7-(methylamino)-2-oxo-1,2-dihydro-1,6-naphthyridin-3-yl)-2-fluorophenyl)-3-(naphthalen-1-yl)urea] | < 0.01 | < 0.01
CNc1cc2c(cn1)cc(-c1cc(NC(=O)Nc3csc4ccccc34)c(F)cc1F)c(=O)n2C [Example 14, 1-(benzo[b]thiophen-3-yl)-3-(2,4-difluoro-5-(1-methyl-7-(methylamino)-2-oxo-1,2-dihydro-1,6-naphthyridin-3-yl)phenyl)urea] | 0.01 to 0.1 | < 0.01
CCn1c(=O)c(-c2cc(NC(=O)Nc3cccc(F)c3)c(F)cc2F)cc2cnc(NC)cc21 [Example 15, 1-(5-(1-ethyl-7-(methylamino)-2-oxo-1,2-dihydro-1,6-naphthyridin-3-yl)-2,4-difluorophenyl)-3-(3-fluorophenyl)urea] | 0.01 to 0.1 | 0.01 to 0.1
CCn1c(=O)c(-c2cc(NC(=O)Nc3ccccc3)c(F)cc2F)cc2cnc(NC)cc21 [Example 16, 1-(5-(1-ethyl-7-(methylamino)-2-oxo-1,2-dihydro-1,6-naphthyridin-3-yl)-2,4-difluorophenyl)-3-phenylurea] | 0.1 to 1 | 0.1 to 1
CCn1c(=O)c(-c2cc(NC(=O)Nc3cccc(F)c3)c(F)cc2Cl)cc2cnc(N)cc21 [Example 20, 1-(5-(7-amino-1-ethyl-2-oxo-1,2-dihydro-1,6-naphthyridin-3-yl)-4-chloro-2-fluorophenyl)-3-(3-fluorophenyl)urea] | 0.01 to 0.1 | 0.1 to 1
CNc1cc2c(cn1)cc(-c1cc(NC(=O)Nc3ccccc3)c(F)cc1Cl)c(=O)n2C(C)C [Example 22, 1-(4-chloro-2-fluoro-5-(1-isopropyl-7-(methylamino)-2-oxo-1,2-dihydro-1,6-naphthyridin-3-yl)phenyl)-3-phenylurea] | 0.01 to 0.1 | 0.01 to 0.1
CCn1c(=O)c(-c2cc(NC(=O)Nc3cccc(F)c3)c(F)cc2Cl)cc2cnc(NC)cc21 [Example 24, 1-[4-chloro-5-(1-ethyl-7-methylamino-2-oxo-1,2-dihydro-[1,6]naphthyridin-3-yl)-2-fluoro-phenyl]-3-(3-fluoro-phenyl)-urea] | < 0.01 | 0.01 to 0.1
CCn1c(=O)c(-c2cc(NC(=O)Nc3ccccc3F)c(F)cc2Cl)cc2cnc(NC)cc21 [Example 25, 1-[4-chloro-5-(1-ethyl-7-methylamino-2-oxo-1,2-dihydro-[1,6]naphthyridin-3-yl)-2-fluoro-phenyl]-3-(2-fluoro-phenyl)-urea] | 0.01 to 0.1 | 0.01 to 0.1
CCn1c(=O)c(-c2cc(NC(=O)Nc3ccccc3)c(F)cc2Cl)cc2cnc(NCCOC)cc21 [Example 27, 1-(4-chloro-5-(1-ethyl-7-(2-methoxyethylamino)-2-oxo-1,2-dihydro-1,6-naphthyridin-3-yl)-2-fluorophenyl)-3-phenylurea] | 0.01 to 0.1 | 0.01 to 0.1
CCn1c(=O)c(-c2cc(NC(=O)Nc3cccc(F)c3)c(F)cc2Cl)cc2cnc(NCCOC)cc21 [Example 28, 1-(4-chloro-5-(1-ethyl-7-(2-methoxyethylamino)-2-oxo-1,2-dihydro-1,6-naphthyridin-3-yl)-2-fluorophenyl)-3-(3-fluorophenyl)urea] | 0.01 to 0.1 | 0.1 to 1
CCn1c(=O)c(-c2cc(NC(=O)Nc3csc4ccccc34)c(F)cc2Cl)cc2cnc(NC)cc21 [Example 32] | < 0.01 | < 0.01
CCn1c(=O)c(-c2cc(NC(=O)Nc3ccccc3)ccc2Cl)cc2cnc(NC)cc21 [Example 33, 1-(4-chloro-3-(1-ethyl-7-(methylamino)-2-oxo-1,2-dihydro-1,6-naphthyridin-3-yl)phenyl)-3-phenylurea] | 0.01 to 0.1 | 
CCn1c(=O)c(-c2cc(NC(=O)Nc3ccccc3)c(F)cc2F)cc2cnc(NCCOC)cc21 [Example 36, 1-(5-(1-ethyl-7-(2-methoxyethylamino)-2-oxo-1,2-dihydro-1,6-naphthyridin-3-yl)-2,4-difluorophenyl)-3-phenylurea] | 0.1 to 1 | 0.1 to 1
CNc1cc2c(cn1)cc(-c1cc(NC(=O)Nc3cccc(F)c3)c(F)cc1C)c(=O)n2C(C)C [Example 41, 1-(2-fluoro-5-(1-isopropyl-7-(methylamino)-2-oxo-1,2-dihydro-1,6-naphthyridin-3-yl)-4-methylphenyl)-3-(3-fluorophenyl)urea] | 0.01 to 0.1 | 0.1 to 1

Continued, values first:

IC50 [1] [µM] | IC50 [2] [µM] | Structure (SMILES)
< 0.01 | 0.01 to 0.1 | CCn1c(=O)c(-c2cc(NC(=O)Nc3cccc(F)c3)c(F)cc2C)cc2cnc(NC)cc21 [Example 44, 1-(5-(1-ethyl-7-(methylamino)-2-oxo-1,2-dihydro-1,6-naphthyridin-3-yl)-2-fluoro-4-methylphenyl)-3-(3-fluorophenyl)urea]
< 0.01 | 0.1 to 1 | CCn1c(=O)c(-c2cc(NC(=O)Nc3cccc(F)c3)c(F)cc2Br)cc2cnc(NC)cc21 [Example 50, 1-(4-bromo-5-(1-ethyl-7-(methylamino)-2-oxo-1,2-dihydro-1,6-naphthyridin-3-yl)-2-fluorophenyl)-3-(3-fluorophenyl)urea]
0.01 to 0.1 | 0.1 to 1 | CCn1c(=O)c(-c2cc(NC(=O)Nc3ccccc3)c(F)cc2Br)cc2cnc(NCCOC)cc21 [Example 51, 1-(4-bromo-5-(1-ethyl-7-(2-methoxyethylamino)-2-oxo-1,2-dihydro-1,6-naphthyridin-3-yl)-2-fluorophenyl)-3-phenylurea]
0.01 to 0.1 | 0.01 to 0.1 | CCn1c(=O)c(-c2cc(NC(=O)Nc3ccccc3)c(F)cc2Cl)cc2cnc(NC(C)=O)cc21 [Example 54, 1-(5-(7-acetamido-1-ethyl-2-oxo-1,2-dihydro-1,6-naphthyridin-3-yl)-4-chloro-2-fluorophenyl)-3-phenylurea]
0.01 to 0.1 | > 1 | CCn1c(=O)c(-c2cc(NC(=O)Nc3cc(F)cc(F)c3)c(F)cc2Cl)cc2cnc(NC)cc21 [Example 55, 1-(4-chloro-5-(1-ethyl-7-(methylamino)-2-oxo-1,2-dihydro-1,6-naphthyridin-3-yl)-2-fluorophenyl)-3-(3,5-difluorophenyl)urea]
0.01 to 0.1 | 0.1 to 1 | CCn1c(=O)c(-c2cc(NC(=O)Nc3ccccc3)c(F)cc2Br)cc2cnc(N)cc21 [Example 57, 1-(5-(7-amino-1-ethyl-2-oxo-1,2-dihydro-1,6-naphthyridin-3-yl)-4-bromo-2-fluorophenyl)-3-phenylurea]
0.01 to 0.1 | 0.1 to 1 | CCn1c(=O)c(-c2cc(NC(=O)Nc3cccc(F)c3)c(F)cc2C)cc2cnc(N)cc21 [Example 58, 1-(5-(7-amino-1-ethyl-2-oxo-1,2-dihydro-1,6-naphthyridin-3-yl)-2-fluoro-4-methylphenyl)-3-(3-fluorophenyl)urea]
 | < 0.01 | CCn1c(=O)c(-c2cc(NC(=O)Nc3ccccc3)c(F)cc2C)cc2cnc(NC(=O)N3CCC3)cc21 [Example 110, N-(1-ethyl-3-(4-fluoro-2-methyl-5-(3-phenylureido)phenyl)-2-oxo-1,2-dihydro-1,6-naphthyridin-7-yl)azetidine-1-carboxamide]
